# Laboratory results as given in patent US20240382482A1, “PLASMA KALLIKREIN INHIBITORS” (TAKEDA PHARMACEUTICAL COMPANY LIMITED, priority 2021, published 2024).
# Structures can show the parent of a compound that is named as a salt.
# Target: human activated kallikrein enzyme (Homo sapiens, UniProt P03952)
# Assay: Inhibition of human activated kallikrein enzyme, fluorogenic peptide substrate assay (500 pM enzyme format)
# Assay type: biochemical
# Conditions: 500 pM activated kallikrein, 300 μM PFR-AMC substrate, 30 min preincubation, 10 min reaction, room temperature; read-out: Primary Dose Response Assay: Average EC50
# Protocol: Compounds were evaluated for inhibition of the human activated kallikrein enzyme in two formats of an assay employing a fluorogenic peptide substrate. In one assay format, the concentrations of reagents were as follows: 20 mM Tris pH 7.5, 1 mM EDTA, 150 mM sodium chloride, 0.1% PEG-400, 0.1% Triton X-100, 500 pM activated kallikrein enzyme, 300 μM Pro-Phe-Arg-7-amido-4-methylcoumarin (PFR-AMC) substrate. Prior to reaction initiation with substrate, enzyme and inhibitors were preincubated for 30 min at room temperature. After initiation with substrate, reactions were incubated for 10 min at room temperature and fluorescence emission at 460 nm from 380 nm excitation measured with a microplate reader. In another assay format, the concentrations of reagents were as follows: 20 mM Tris pH 7.5, 1 mM EDTA, 150 mM sodium chloride, 0.1% PEG-400, 0.1% Triton X-100, 5 pM activated kallikrein enzyme, 300 uM PFR-AMC substrate. Prior to reaction initiation with substrate, enzyme and inhibitors were preincubated for 30 min at room temperature. After initiation with substrate, reactions were incubated for 18 hr at room temperature and fluorescence emission at 460 nm from 380 nm excitation measured with a microplate reader.
# Table 1 provides the results of the assay in the format with 500 pM activated kallikrein assay. For the compounds listed in Table 1, the EC50 values are reported according to the following ranges: A≤5.0 nM; 5.0 nM<B≤50 nM; 50 nM<C≤500 nM; 500 nM<D≤9000 nM; 9000 nM<E.
# human activated kallikrein enzyme, sequence (P03952 391-638 limits assumed): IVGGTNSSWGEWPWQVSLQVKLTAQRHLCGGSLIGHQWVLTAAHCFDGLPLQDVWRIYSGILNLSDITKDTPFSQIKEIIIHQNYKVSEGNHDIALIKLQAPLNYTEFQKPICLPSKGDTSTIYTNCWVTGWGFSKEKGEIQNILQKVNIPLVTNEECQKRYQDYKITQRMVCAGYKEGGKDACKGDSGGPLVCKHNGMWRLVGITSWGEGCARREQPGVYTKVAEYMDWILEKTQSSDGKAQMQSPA
# human activated kallikrein enzyme, sequence (P03952 20-390 partner limits assumed): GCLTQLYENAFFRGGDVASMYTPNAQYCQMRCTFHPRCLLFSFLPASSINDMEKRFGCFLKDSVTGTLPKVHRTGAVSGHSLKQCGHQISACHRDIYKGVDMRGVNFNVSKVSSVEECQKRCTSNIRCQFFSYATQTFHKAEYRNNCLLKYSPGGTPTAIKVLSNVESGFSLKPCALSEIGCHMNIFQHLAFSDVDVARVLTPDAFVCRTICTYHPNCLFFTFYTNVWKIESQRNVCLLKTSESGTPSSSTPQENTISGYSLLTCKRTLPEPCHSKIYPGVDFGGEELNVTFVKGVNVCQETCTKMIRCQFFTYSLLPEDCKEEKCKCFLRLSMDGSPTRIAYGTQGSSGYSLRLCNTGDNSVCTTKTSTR
row,Structure (SMILES),EC50 [nM]
1,"CCOC(=O)CCc1nc(NCc2c(C)cc(C(=N)NO)cc2C)cc(OCc2cn3cc(C4CC4)ccc3n2)n1 [Example 73, ethyl 3-(4-((6-cyclopropylimidazo[1,2-a]pyridin-2-yl)methoxy)-6-((4-(N-hydroxycarbamimidoyl)-2,6-dimethylbenzyl)amino)pyrimidin-2-yl)propanoate]",50 to 500
2,"Cc1cc(C(=N)N)cc(C)c1CNc1cc(NCc2cn3cc(C4CC4)ccc3n2)cnn1 [Example 98, 4-(((5-(((6-cyclopropylimidazo[1,2-a]pyridin-2-yl)methyl)amino)pyridazin-3-yl)amino)methyl)-3,5-dimethylbenzimidamide]",≤ 5
3,"CCOC(=O)NC(=N)c1cc(C)c(CNc2cc(OCc3cn4cc(C5CC5)ccc4n3)ncn2)c(C)c1 [Example 83, ethyl ((4-(((6-((6-cyclopropylimidazo[1,2-a]pyridin-2-yl)methoxy)pyrimidin-4-yl)amino)methyl)-3,5-dimethylphenyl)(imino)methyl)carbamate]",50 to 500
4,"Cc1cc(C(=N)N)cc(C)c1CNc1cc(OCc2cn3cc(C4CC4)ccc3n2)nc(C(=O)O)n1 [Example 85, 4-((4-carbamimidoyl-2,6-dimethylbenzyl)amino)-6-((6-cyclopropylimidazo[1,2-a]pyridin-2-yl)methoxy)pyrimidine-2-carboxylic acid]",≤ 5
5,"Cc1cc(C(=N)N)cc(C)c1CNc1cc(OCc2cn3cc(C4CC4)ccc3n2)nc(CC(C)(C)C(=O)O)n1 [Example 92, 3-(4-((4-carbamimidoyl-2,6-dimethylbenzyl)amino)-6-((6-cyclopropylimidazo[1,2-a]pyridin-2-yl)methoxy)pyrimidin-2-yl)-2,2-dimethylpropanoic acid]",≤ 5
6,"Cc1cc(N)nc(C)c1CNc1cc(NCc2cn3cc(C4CC4)ccc3n2)ncn1 [Example 111, N^4-((6-amino-2,4-dimethylpyridin-3-yl)methyl)-N^6-((6-cyclopropylimidazo[1,2-a]pyridin-2-yl)methyl)pyrimidine-4,6-diamine]",≤ 5
7,"O[C@H]1C[C@H](c2cn3cc(C4CC4)ccc3n2)N(c2cc(NCc3cc4cc[nH]c4cc3F)ncn2)C1 [Example 140, (3S,5R)-5-(6-cyclopropylimidazo[1,2-a]pyridin-2-yl)-1-(6-(((6-fluoro-1H-indol-5-yl)methyl)amino)pyrimidin-4-yl)pyrrolidin-3-ol]",500 to 9000
8,"Cc1cc(C(=N)NO)cc(C)c1CNc1cc(OCc2cn3cc(C4CC4)ccc3n2)ncn1 [Example 71, 4-(((6-((6-cyclopropylimidazo[1,2-a]pyridin-2-yl)methoxy)pyrimidin-4-yl)amino)methyl)-N-hydroxy-3,5-dimethylbenzimidamide]",5 to 50
9,"CCOC(=O)CCc1cc(C2CC2)cn2cc(CNc3cc(NC(=O)Cc4ncn5ccc(Cl)cc45)ncn3)nc12 [Example 38, ethyl 3-(2-(((6-(2-(7-chloroimidazo[1,5-a]pyridin-1-yl)acetamido)pyrimidin-4-yl)amino)methyl)-6-cyclopropylimidazo[1,2-a]pyridin-8-yl)propanoate]",≤ 5
10,"O=C(Cc1ncn2ccc(Cl)cc12)Nc1cncnc1NCc1cn2c(F)c(C3CC3)ccc2n1 [Example 43, 2-(7-chloroimidazo[1,5-a]pyridin-1-yl)-N-(4-(((6-cyclopropyl-5-fluoroimidazo[1,2-a]pyridin-2-yl)methyl)amino)pyrimidin-5-yl)acetamide]",5 to 50
11,"CC(C(=O)Nc1cc(C(F)(F)c2cn3cc(C4CC4)ccc3n2)ncn1)c1ncn2ccc(Cl)cc12 (stereo not drawn) [Example 61, 2-(7-chloroimidazo[1,5-a]pyridin-1-yl)-N-(6-((6-cyclopropylimidazo[1,2-a]pyridin-2-yl)difluoromethyl)pyrimidin-4-yl)propanamide]",500 to 9000
12,"Cc1cc(C(=N)N)cc(C)c1CNc1cc(OCc2cn3cc(Cl)ccc3n2)ncn1 [Example 69, 4-(((6-((6-chloroimidazo[1,2-a]pyridin-2-yl)methoxy)pyrimidin-4-yl)amino)methyl)-3,5-dimethylbenzimidamide formic acid salt]",≤ 5

# Now from value to compound:
row,EC50 [nM],Structure (SMILES)
1,≤ 5,"CC(O)c1nc(NCc2cn3cc(C4CC4)ccc3n2)cc(NC(=O)Cc2ncn3ccc(Cl)cc23)n1 (stereo not drawn) [Example 103, 2-(7-chloroimidazo[1,5-a]pyridin-1-yl)-N-(6-(((6-cyclopropylimidazo[1,2-a]pyridin-2-yl)methyl)amino)-2-(1-hydroxyethyl)pyrimidin-4-yl)acetamide]"
2,500 to 9000,"O=C(Cc1cc2c(Cl)c[nH]c2cc1F)Nc1cc(NCc2cn3cc(C4CC4)ccc3n2)ncn1 [Example 131, 2-(3-chloro-6-fluoro-1H-indol-5-yl)-N-(6-(((6-cyclopropylimidazo[1,2-a]pyridin-2-yl)methyl)amino)pyrimidin-4-yl)acetamide]"
3,500 to 9000,"CC(Cc1cccc(Cl)c1)C(=O)Nc1cc(NCc2cn3cc(C4CC4)ccc3n2)ncn1 (stereo not drawn) [Example 7, 3-(3-chlorophenyl)-N-(6-(((6-cyclopropylimidazo[1,2-a]pyridin-2-yl)methyl)amino)pyrimidin-4-yl)-2-methylpropanamide]"
4,≤ 5,"O=C(Cc1ncn2ccc(Cl)cc12)Nc1cc(NCc2cn3cc(C4CC4)cc(C4(F)COC4)c3n2)ncn1 [Example 19, 2-(7-chloroimidazo[1,5-a]pyridin-1-yl)-N-(6-(((6-cyclopropyl-8-(3-fluorooxetan-3-yl)imidazo[1,2-a]pyridin-2-yl)methyl)amino)pyrimidin-4-yl)acetamide]"
5,> 9000,"C[C@H](C(=O)Nc1cc(NCc2cn3cc(C4CC4)ccc3n2)ncn1)[C@@H](C)c1cccc(Cl)c1 [Example 133, (2S,3R)-3-(3-chlorophenyl)-N-(6-(((6-cyclopropylimidazo[1,2-a]pyridin-2-yl)methyl)amino)pyrimidin-4-yl)-2-methylbutanamide]"
6,500 to 9000,"O=C(Cn1nnc2ccc(Cl)cc21)Nc1cc(NCc2cn3cc(C4CC4)ccc3n2)ccn1 [Example 27, 2-(6-chloro-1H-benzo[d][1,2,3]triazol-1-yl)-N-(4-(((6-cyclopropylimidazo[1,2-a]pyridin-2-yl)methyl)amino)pyridin-2-yl)acetamide]"
7,5 to 50,"O=C(Cc1cc(Cl)ccc1-n1cnnn1)Nc1cc(NCc2cn3cc(C4CC4)ccc3n2)ncn1 [Example 35, 2-(5-chloro-2-(1H-tetrazol-1-yl)phenyl)-N-(6-(((6-cyclopropylimidazo[1,2-a]pyridin-2-yl)methyl)amino)pyrimidin-4-yl)acetamide]"
8,≤ 5,"O=C(Cc1ncn2ccc(Cl)cc12)Nc1cc(NCc2cn3c(F)c(C4CC4)ccc3n2)ncn1 [Example 46, 2-(7-chloroimidazo[1,5-a]pyridin-1-yl)-N-(6-(((6-cyclopropyl-5-fluoro-imidazo[1,2-a]pyridin-2-yl)methyl)amino)pyrimidin-4-yl)acetamide]"
9,5 to 50,"O=C(Cc1ncn2ccc(Cl)cc12)Nc1cc(OCc2cn3cc(C4CC4)ccc3n2)ncn1 [Example 33, 2-(7-chloroimidazo[1,5-a]pyridin-1-yl)-N-(6-((6-cyclopropylimidazo[1,2-a]pyridin-2-yl)methoxy)pyrimidin-4-yl)acetamide]"
10,5 to 50,"O=C(COc1cc(Cl)ccc1-n1cnnn1)Nc1cc(NCc2cn3cc(C4CC4)ccc3n2)ccn1 [Example 116, 2-(5-chloro-2-(1H-tetrazol-1-yl)phenoxy)-N-(4-(((6-cyclopropylimidazo[1,2-a]pyridin-2-yl)methyl)amino)pyridin-2-yl)acetamide]"
11,≤ 5,"O=C(Cc1ncn2ccc(Cl)cc12)Nc1cc(C(O)c2cn3cc(C4CC4)ccc3n2)ncn1 (stereo not drawn) [Example 59, 2-(7-chloroimidazo[1,5-a]pyridin-1-yl)-N-(6-((6-cyclopropylimidazo[1,2-a]pyridin-2-yl)(hydroxy)methyl)pyrimidin-4-yl)acetamide]"
12,5 to 50,"CC(Nc1cc(NC(=O)Cc2ncn3ccc(Cl)cc23)ncn1)c1cn2cc(C3CC3)ccc2n1 (stereo not drawn) [Example 45, 2-(7-chloroimidazo[1,5-a]pyridin-1-yl)-N-(6-((1-(6-cyclopropylimidazo[1,2-a]pyridin-2-yl)ethyl)amino)pyrimidin-4-yl)acetamide]"
13,5 to 50,"O=C(NCc1ncn2ccc(Cl)cc12)c1cnnc(NCc2cn3cc(C4CC4)ccc3n2)c1 [Example 65, N-((7-chloroimidazo[1,5-a]pyridin-1-yl)methyl)-6-(((6-cyclopropylimidazo[1,2-a]pyridin-2-yl)methyl)amino)pyridazine-4-carboxamide]"
14,≤ 5,"O=C(Cc1ncn2ccc(Br)c(F)c12)Nc1cc(NCc2cn3cc(C4CC4)ccc3n2)ncn1 [Example 53, 2-(7-bromo-8-fluoroimidazo[1,5-a]pyridin-1-yl)-N-(6-(((6-cyclopropylimidazo[1,2-a]pyridin-2-yl)methyl)amino)pyrimidin-4-yl)acetamide]"
15,5 to 50,"O=C(Cc1nncc2ccc(Cl)cc12)Nc1cc(NCc2cn3cc(C4CC4)ccc3n2)ncn1 [Example 105, 2-(7-chlorophthalazin-1-yl)-N-(6-(((6-cyclopropylimidazo[1,2-a]pyridin-2-yl)methyl)amino)pyrimidin-4-yl)acetamide]"
